Values of other authors as cited in patent US9540416B2, “Purification process” (GLAXOSMITHKLINE BIOLOGICALS S.A., priority 2012, dated 2017).
Entries after “also recorded” stand apart in the source; their conditions may differ.

How the values were obtained:
mice and other mammals = conditions: in mice and other mammals
[1] = relative to other Quillaja saponins

Substance: QS-17
- adjuvant activity (mice and other mammals): significant adjuvant activity

Substance: QS-18
- toxicity [1]: more toxic at lower doses than other Quillaja saponins
- adjuvant activity (mice and other mammals): significant adjuvant activity

Substance: QS-21
- toxicity [1]: low toxicity
- adjuvant activity (mice and other mammals): significant adjuvant activity; also recorded: strong adjuvant activity
